According to US10550100B2, “5-[3-[piperzin-1-yl]-3-oxo-propyl]-imidazolidine-2,4-dione derivatives as ADAMTS 4 and 5 inhibitors for treating E.G. osteoarthritis” (GALAPAGOS NV, priority 2016, dated 2020):
Like-named read-outs stand apart in the source and are kept apart here.

Tests used:
Format in all cases: biochemical
human MMP13 = human MMP13 (Homo sapiens (Human), UniProt P45452); experiment: hMMP13 390 MMP FRET Substrate I cleavage assay, Protocol 1; conditions: Protocol 1, 390 MMP FRET Substrate I; read-out: hMMP-13 potency IC50
Experimental: The basis for the assay is the cleavage of the substrate 390 MMP FRET Substrate I (Anaspec Cat# AS-27076) by human MMP13 (Chemicon, Cat#CC068).
Human MMP13 is preactivated by incubated the enzyme in the same buffer complemented with 1 mM freshly prepared p-Aminophenylmercuric acetate (AMPA) for 1 h at 37° C.
The reaction is initiated by adding to the assay plate 390 MMP FRET Substrate I (10 μL, 2.5 μM) in the same buffer.
Finally, the fluorescence is read on the Envision (Perkin Elmer) after an incubation of 45 min at room temperature (Excitation 485 nm, Emission 530).

human ADAMTS6 = human ADAMTS6 (Homo sapiens (Human), UniProt Q9UKP5); experiment: hADAMTS-6 520 MMP FRET substrate XII cleavage assay; conditions: 37° C. for 2 h, read-out: hADAMTS-6 potency IC50
Source text: The IC50 value for test compounds can be determined in a fluorescent based protease assay.
The basis for the assay is the cleavage of the substrate 520 MMP FRET substrate XII by human ADAMTS6.
The substrate contains sequence Arg-Pro-Lys-Pro-Tyr-Ala-Nva-Trp-Met-Lys (SEQ ID NO: 7) with attached a fluorescent probe and a quencher. Without ADAMTS6, the emission of the probe is quenched. If the substrate is cleaved by ADAMTS6, the emission of the probe is not quenched anymore. Inhibition of ADAMTS6 activity, will result in a decrease of the signal.
To perform the assay, 4 μL of a dilution series of compound in water, starting from 20 μM highest concentration, 1/5 dilution, is added to the wells. 2 ng ADAMTS6 enzyme is diluted in 25 mM Tris pH8.0, 0.05% CHAPS, 2.5 mM CaCl2 in a total volume of 26 μL (final concentration 0.73 nM). The reaction is started by addition of 10 μL of 1 μM 520 MMP FRET Substrate XII (final concentration, diluted in same buffer as described above) and the mixture is incubated at 37° C. for 2 h. […] After this incubation, cleavage of the substrate is measured using the Envision (Perkin Elmer, exc485/em530).

human TACE = human TACE (Homo sapiens (Human), UniProt P78536); experiment: hTACE 5FAM-[…]-5TAMRA cleavage assay; conditions: 75 min at room temperature, read-out: hTACE potency IC50
Experimental: Finally, the fluorescence is read on the Envision (Perkin Elmer) after an incubation of 75 min at room temperature (Excitation 485 nm, Emission 530).

human ADAMTS-5 = human ADAMTS-5 (Homo sapiens (Human), UniProt Q9UNA0); experiment: hADAMTS-5 TBIS-1 cleavage assay, Protocol 3; conditions: Protocol 3, TBIS-1 substrate, 90 min at 37° C.; read-out: hADAMTS-5 potency IC50
Experimental: The reaction is initiated by adding to the assay plate TBIS-1 (10 μL, 4.5 μM, Anaspec) in the same buffer.
Finally, the fluorescence is read on the Envision (Perkin Elmer) after an incubation of 90 min at 37° C. (Excitation 485 nm, emission 530).

human ADAMTS6, sequence (Q9UKP5 other isoform, or with tags, fused parts or gaps): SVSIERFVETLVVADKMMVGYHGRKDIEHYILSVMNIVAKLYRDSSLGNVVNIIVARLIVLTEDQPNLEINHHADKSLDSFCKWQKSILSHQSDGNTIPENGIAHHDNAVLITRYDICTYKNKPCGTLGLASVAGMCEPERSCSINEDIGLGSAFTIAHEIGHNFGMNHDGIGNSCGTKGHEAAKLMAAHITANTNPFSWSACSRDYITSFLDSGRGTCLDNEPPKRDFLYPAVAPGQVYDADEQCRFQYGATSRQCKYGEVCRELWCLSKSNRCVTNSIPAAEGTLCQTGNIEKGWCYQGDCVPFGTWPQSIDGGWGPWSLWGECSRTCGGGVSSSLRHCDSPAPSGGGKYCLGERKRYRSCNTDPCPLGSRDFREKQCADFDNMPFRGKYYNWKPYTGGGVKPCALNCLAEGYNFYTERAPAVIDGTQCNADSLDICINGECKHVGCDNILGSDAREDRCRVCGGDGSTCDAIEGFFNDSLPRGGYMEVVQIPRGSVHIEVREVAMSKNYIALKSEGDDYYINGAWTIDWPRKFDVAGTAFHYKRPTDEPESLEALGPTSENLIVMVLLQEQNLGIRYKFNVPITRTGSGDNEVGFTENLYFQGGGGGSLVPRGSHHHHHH
human TACE, sequence (P78536 215-671): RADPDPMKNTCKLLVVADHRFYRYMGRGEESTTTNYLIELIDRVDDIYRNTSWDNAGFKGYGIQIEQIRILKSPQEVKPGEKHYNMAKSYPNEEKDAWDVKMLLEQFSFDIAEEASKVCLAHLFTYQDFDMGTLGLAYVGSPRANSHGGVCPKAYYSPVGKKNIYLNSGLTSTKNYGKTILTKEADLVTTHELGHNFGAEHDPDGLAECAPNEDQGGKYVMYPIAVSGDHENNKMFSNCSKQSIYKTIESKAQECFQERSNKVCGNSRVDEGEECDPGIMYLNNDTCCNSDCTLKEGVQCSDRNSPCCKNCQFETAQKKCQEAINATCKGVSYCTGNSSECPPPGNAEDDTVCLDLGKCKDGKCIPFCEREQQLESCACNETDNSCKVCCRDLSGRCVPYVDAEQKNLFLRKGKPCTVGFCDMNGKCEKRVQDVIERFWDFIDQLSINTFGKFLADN
human ADAMTS-5, sequence (Q9UNA0 262-930): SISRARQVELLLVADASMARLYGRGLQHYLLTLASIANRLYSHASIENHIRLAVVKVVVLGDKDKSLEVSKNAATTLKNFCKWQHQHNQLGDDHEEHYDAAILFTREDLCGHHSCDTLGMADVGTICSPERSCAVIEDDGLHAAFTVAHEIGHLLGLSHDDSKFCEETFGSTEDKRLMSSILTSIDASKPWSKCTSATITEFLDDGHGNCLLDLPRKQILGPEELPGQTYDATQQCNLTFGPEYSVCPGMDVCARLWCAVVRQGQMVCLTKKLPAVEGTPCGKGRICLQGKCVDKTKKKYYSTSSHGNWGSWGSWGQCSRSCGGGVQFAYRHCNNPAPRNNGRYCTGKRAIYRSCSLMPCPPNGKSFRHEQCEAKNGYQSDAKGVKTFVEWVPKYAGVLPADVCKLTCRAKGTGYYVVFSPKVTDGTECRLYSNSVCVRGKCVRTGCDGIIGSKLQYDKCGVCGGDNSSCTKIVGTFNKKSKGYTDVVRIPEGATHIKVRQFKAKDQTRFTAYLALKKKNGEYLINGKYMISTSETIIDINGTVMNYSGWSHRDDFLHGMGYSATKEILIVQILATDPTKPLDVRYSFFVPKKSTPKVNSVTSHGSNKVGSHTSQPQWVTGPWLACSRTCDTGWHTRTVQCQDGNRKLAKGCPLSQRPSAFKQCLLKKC

Structure (SMILES)	IC50 (human MMP13) [nM]	IC50 (human ADAMTS6) [nM]	IC50 (human TACE; 5FAM-LAQAVRSSSRK-5TAMRA) [nM]	IC50 (human ADAMTS-5) [nM]	IC50 (human TACE; 5FAM-[…]-5TAMRA) [nM]
COc1cc(C2CCN(C(=O)CC[C@H]3NC(=O)NC3=O)CC2)c(C)cc1Cl [Cpd 33, (R)-5-(3-(4-(4-chloro-5-methoxy-2-methylphenyl)piperidin-1-yl)-3-oxopropyl) imidazolidine-2,4-dione]	> 100	25 to 50	> 100	> 100	–
Cc1c(Cl)cc(Cl)cc1C1CCN(C(=O)CC[C@H]2NC(=O)NC2=O)CC1 [Cpd 48, (R)-5-(3-(4-(3,5-dichloro-2-methylphenyl)piperidin-1-yl)-3-oxopropyl) imidazolidine-2,4-dione]	> 100	50 to 100	> 100	> 100	–
Cc1ccccc1C1CCN(C(=O)CC[C@H]2NC(=O)NC2=O)CC1 [Cpd 58, (R)-5-(3-oxo-3-(4-o-tolylpiperidin-1-yl)propyl) imidazolidine-2,4-dione]	> 100	> 100	> 100	> 100	–
CCOc1cc(C2CCN(C(=O)CC[C@H]3NC(=O)NC3=O)CC2)cc(OC)c1Cl [Cpd 88, (5R)-5-[3-[4-(4-chloro-3-ethoxy-5-methoxy-phenyl)-1-piperidyl]-3-oxo-propyl] imidaz olidine-2,4-dione]	–	0.001 to 25	–	> 100	50 to 100
COc1cc(C2CCN(C(=O)CC[C@H]3NC(=O)NC3=O)CC2)ccc1F [Cpd 52, (R)-5-(3-(4-(4-fluoro-3-methoxyphenyl)piperidin-1-yl)-3-oxopropyl) imidazolidine-2,4-dione]	–	> 100	> 100	> 100	–
COc1cc(C2CCN(C(=O)CCC3(C)NC(=O)NC3=O)CC2)ccc1Cl (stereo not drawn) [Cpd 36, 5-(3-(4-(4-chloro-3-methoxyl-phenyl)piperidin-1-yl)-3-oxopropyl)-5-methyl-imidazolidine-2,4-dione]	> 100	0.001 to 25	> 100	–	–
COc1cc(C2CCN(C(=O)CC[C@H]3NC(=O)NC3=O)CC2)ccc1Cl [Cpd 32, (R)-5-(3-(4-(4-chloro-3-methoxyphenyl)piperidin-1-yl)-3-oxopropyl) imidazolidine-2,4-dione]	> 100	25 to 50	> 100	> 100	–
COc1ccc(OC)c(C2CCN(C(=O)CC[C@H]3NC(=O)NC3=O)CC2)c1 [Cpd 35, (R)-5-(3-(4-(2,5-dimethoxy-phenyl)piperidin-1-yl)-3-oxopropyl) imidazolidine-2,4-dione]	–	> 100	–	> 100	–
COc1cc(C2CCN(C(=O)CCC3(C)NC(=O)NC3=O)CC2)cc(F)c1F (stereo not drawn) [Cpd 45, 5-(3-(4-(3,4-difluoro-5-methoxyphenyl)piperidin-1-yl)-3-oxopropyl)-5-methyl-imidazolidine-2,4-dione]	> 100	0.001 to 25	> 100	> 100	–
O=C1NC(=O)[C@@H](CCC(=O)N2CCC(c3ccc(F)c(F)c3)CC2)N1 [Cpd 53, (R)-5-(3-(4-(3,4-difluorophenyl)piperidin-1-yl)-3-oxopropyl) imidazolidine-2,4-dione]	–	> 100	–	> 100	–
Cc1c(Cl)cc(Cl)cc1C1CCN(C(=O)CCC2(C)NC(=O)NC2=O)CC1 (stereo not drawn) [Cpd 49, 5-(3-(4-(3,5-dichloro-2-methylphenyl)piperidin-1-yl)-3-oxopropyl)-5-methyl-imidazolidine-2,4-dione]	> 100	25 to 50	> 100	> 100	–
COc1ccc(OC)c(C2CCN(C(=O)CCC3(C)NC(=O)NC3=O)CC2)c1 (stereo not drawn) [Cpd 39, 5-(3-(4-(2,5-dimethoxy-phenyl)piperidin-1-yl)-3-oxopropyl)-5-methyl-imidazolidine-2,4-dione]	–	> 100	–	> 100	–
COc1c(Cl)cccc1C1CCN(C(=O)CC[C@@]2(C)NC(=O)NC2=O)CC1 [Cpd 86, (5R)-5-[3-[4-(3-chloro-2-methoxy-phenyl)-1-piperidyl]-3-oxo-propyl]-5-methyl-imidazolidine-2,4-dione]	–	> 100	–	> 100	–

Other lines, results leading:

IC50 (human MMP13) [nM]	IC50 (human ADAMTS6) [nM]	IC50 (human TACE; 5FAM-LAQAVRSSSRK-5TAMRA) [nM]	IC50 (human ADAMTS-5) [nM]	IC50 (human TACE; 5FAM-[…]-5TAMRA) [nM]	Structure (SMILES)
–	50 to 100	> 100	50 to 100	–	C[C@H]1CN(C(=O)CCC2(C3CC3)NC(=O)NC2=O)CC[C@H]1c1ccc(F)c(F)c1 (stereo partly drawn) [Cpd 76, 5-cyclopropyl-5-(3-((3R,4R)-4-(3,4-difluorophenyl)-3-methylpiperidin-1-yl)-3-oxopropyl) imidazolidine-2,4-dione]
–	> 100	> 100	> 100	–	C[C@H]1CN(C(=O)CC[C@@]2(C3CC3)NC(=O)NC2=O)CC[C@@H]1c1ccc(F)c(F)c1 [Cpd 77, (S)-5-cyclopropyl-5-(3-((3R,4S)-4-(3,4-difluorophenyl)-3-methylpiperidin-1-yl)-3-oxopropyl) imidazolidine-2,4-dione]
> 100	0.001 to 25	> 100	50 to 100	–	COc1cc(C2CCN(C(=O)CC[C@H]3NC(=O)NC3=O)CC2)cc(F)c1Cl [Cpd 46, (R)-5-(3-(4-(4-chloro-3-fluoro-5-methoxyphenyl)piperidin-1-yl)-3-oxopropyl) imidazolidine-2,4-dione]
–	25 to 50	> 100	25 to 50	–	C[C@H]1CN(C(=O)CC[C@@]2(C3CC3)NC(=O)NC2=O)CC[C@H]1c1ccc(F)c(F)c1 [Cpd 78, (S)-5-cyclopropyl-5-(3-((3R,4R)-4-(3,4-difluorophenyl)-3-methylpiperidin-1-yl)-3-oxopropyl) imidazolidine-2,4-dione]
> 100	25 to 50	> 100	> 100	–	COc1cc(OC)cc(C2CCN(C(=O)CCC3(C)NC(=O)NC3=O)CC2)c1 (stereo not drawn) [Cpd 38, 5-(3-(4-(3,5-dimethoxy-phenyl)piperidin-1-yl)-3-oxopropyl)-5-methyl-imidazolidine-2,4-dione]
> 100	0.001 to 25	> 100	–	–	COc1cc(C2CCN(C(=O)CCC3(C)NC(=O)NC3=O)CC2)cc(F)c1Cl (stereo not drawn) [Cpd 47, 5-(3-(4-(4-chloro-3-fluoro-5-methoxyphenyl)piperidin-1-yl)-3-oxopropyl)-5-methyl-imidazolidine-2,4-dione]
> 100	25 to 50	> 100	> 100	–	COc1cc(C2CCN(C(=O)CC[C@H]3NC(=O)NC3=O)CC2)cc(F)c1F [Cpd 43, (R)-5-(3-(4-(3,4-difluoro-5-methoxy-phenyl)piperidin-1-yl)-3-oxopropyl) imidazolidine-2,4-dione]
–	25 to 50	–	50 to 100	–	C[C@H]1CN(C(=O)CC[C@@]2(C)NC(=O)NC2=O)CC[C@H]1c1ccc(F)c(F)c1 [Cpd 99, (5R)-5-[3-[(3R,4R)-4-(3,4-difluorophenyl)-3-methyl-1-piperidyl]-3-oxo-propyl]-5-methyl-imidazolidine-2,4-dione]
–	50 to 100	–	> 100	–	Cc1cc(Cl)c(F)cc1C1CCN(C(=O)CC[C@H]2NC(=O)NC2=O)CC1 [Cpd 63, (R)-5-(3-(4-(4-chloro-5-fluoro-2-methylphenyl)piperidin-1-yl)-3-oxopropyl) imidazolidine-2,4-dione]
–	> 100	–	> 100	–	CC1(CCC(=O)N2CCC(c3ccc(F)c(F)c3)CC2)NC(=O)NC1=O (stereo not drawn) [Cpd 56, 5-(3-(4-(3,4-difluorophenyl)piperidin-1-yl)-3-oxopropyl)-5-methyl-imidazolidine-2,4-dione]
–	> 100	–	> 100	–	COc1ccc(Cl)cc1C1CCN(C(=O)CC[C@H]2NC(=O)NC2=O)CC1 [Cpd 40, (R)-5-(3-(4-(5-chloro-2-methoxy-phenyl)piperidin-1-yl)-3-oxopropyl) imidazolidine-2,4-dione]
> 100	–	–	> 100	–	COc1ccc(Cl)cc1C1CCN(C(=O)CCC2(C)NC(=O)NC2=O)CC1 (stereo not drawn) [Cpd 41, 5-(3-(4-(5-chloro-2-methoxy-phenyl)piperidin-1-yl)-3-oxopropyl)-5-methyl-imidazolidine-2,4-dione]
